This passage reports ED50, LD50 and Activity results from ChEMBL document CHEMBL3244111, “Nitrones. 7. alpha-Quinoxalinyl-N-substituted nitrone 1,4-dioxides” (J Med Chem, 1977).

Series [1] has as its system Pasteurella multocida. Briefly: In vivo antibacterial activity against Pasteurella multocida infected in CF1 mouse assessed as protection against bacterial infection administered as two doses. Type of series: functional.
Series [2] has as its system Streptococcus pyogenes. Briefly: In vivo antibacterial activity against Streptococcus pyogenes infected in CF1 mouse assessed as protection against bacterial infection administered as two doses. Type of series: functional.
Series [3] deals with Proteus mirabilis. Briefly: In vivo antibacterial activity against Proteus mirabilis infected in CF1 mouse assessed as protection against bacterial infection administered as two doses. It counts as functional.
Series [4] can be described thus: Acute toxicity in ip dosed mouse administered as single dose. It counts as organism-based. The following applies: in vivo.
Series [5] deals with Salmonella typhimurium. Briefly: In vivo antibacterial activity against Salmonella typhimurium infected in CF1 mouse assessed as protection against bacterial infection administered as two doses. It counts as functional, Salmonella enterica subsp. enterica serovar Typhimurium. As to conditions: Salmonella enterica.
In series [6] the test system is Salmonella enteritidis. Briefly: In vivo antibacterial activity against Salmonella enteriditis infected in CF1 mouse assessed as protection against bacterial infection administered as two doses. It counts as functional, Salmonella enterica subsp. enterica serovar Enteritidis. As to conditions: Salmonella enterica.
In series [7] the test system is Staphylococcus aureus. Briefly: In vivo antibacterial activity against Staphylococcus aureus infected in CF1 mouse assessed as protection against bacterial infection administered as two doses. It counts as functional.
For series [8], the system named is Klebsiella pneumoniae. Briefly: In vivo antibacterial activity against Klebsiella pneumoniae infected in CF1 mouse assessed as protection against bacterial infection administered as two doses. It counts as functional.
In series [9] the test system is Salmonella. Briefly: In vivo antibacterial activity against Salmonella typhosa infected in CF1 mouse assessed as protection against bacterial infection administered as two doses. Type of series: functional.
Series [10] relates to Escherichia coli. Briefly: In vivo antibacterial activity against Escherichia coli infected in CF1 mouse assessed as protection against bacterial infection administered as two doses. Type of series: functional.
The subject of series [11] is Shigella dysenteriae. Briefly: In vivo antibacterial activity against Shigella dysenteriae infected in CF1 mouse assessed as protection against bacterial infection administered as two doses. Type of series: functional.
For series [12], the system named is Histomonas meleagridis. Briefly: In vivo antiprotozoal activity against Histomonas meleagridis infected in turkey. Type of series: functional, organism-based.
Series [13] is described as follows: Acute toxicity in po dosed mouse administered as single dose. It counts as organism-based. As to conditions: in vivo.
Series [14] deals with Salmonella. Briefly: In vivo antibacterial activity against Salmonella schottmuelleri infected in CF1 mouse assessed as protection against bacterial infection administered as two doses. It counts as functional.
In series [15] the test system is Proteus vulgaris. Briefly: In vivo antibacterial activity against Proteus vulgaris infected in CF1 mouse assessed as protection against bacterial infection administered as two doses. It counts as functional.
For series [16], the system named is Listeria monocytogenes. Briefly: In vivo antibacterial activity against Listeria monocytogenes infected in CF1 mouse assessed as protection against bacterial infection administered as two doses. Type of series: functional.
Series [17] in a line: Acute toxicity in sc dosed mouse administered as single dose. The following applies: in vivo. Type of series: organism-based.
In series [18] the test system is Streptococcus pneumoniae. Briefly: In vivo antibacterial activity against Diplococcus pneumoniae I infected in CF1 mouse assessed as protection against bacterial infection administered as two doses. It counts as functional.
Series [19] concerns Pseudomonas aeruginosa. Briefly: In vivo antibacterial activity against Pseudomonas aeruginosa infected in sc dosed CF1 mouse assessed as protection against bacterial infection administered as two doses. It counts as functional.
Series [20] relates to Shigella flexneri. Briefly: In vivo antibacterial activity against Shigella paradysenteriae infected in CF1 mouse assessed as protection against bacterial infection administered as two doses. Type of series: functional.

Calls of active or inactive are those of the source. The calls are words filed in the database; no cut-off is given here.

In general, ED50 refers to the dose that gives a 50% effect, or the effect in half of the subjects. The LD50 is the dose expected to kill half of the subjects tested. Turning to `O=C(N[C@H](CO)[C@H](O)c1ccc([N+](=O)[O-])cc1)C(Cl)Cl` [CHLORAMPHENICOL], the 50% effective dose (ED50) in series [1] worked out at 11 mg/kg; in [2], 27 mg/kg; in [3], 52 mg/kg; in [5], 16 mg/kg; in series [6] it was 29 mg/kg; in series [7] it was 27 mg/kg. Also, the median effective dose (ED50) was 20 mg/kg in [8]; 24 mg/kg in [9]; 41 mg/kg in [10]; 61 mg/kg in series [11]; 9 mg/kg in series [14]; more than 100 mg/kg in [15]. The 50% effective dose (ED50) in series [16] is more than 100 mg/kg. In addition, the median lethal dose (LD50) stood at 1320 mg/kg in [4] and 2640 mg/kg in series [13]. Moreover, in series [12], the result was inactive.
With `Cc1c(/C=[N+](\C)[O-])[n+]([O-])c2ccccc2[n+]1[O-]`, the 50% effective dose (ED50) was determined as 7 mg/kg in [1]; 35 mg/kg in [2]; 18 mg/kg in [3]; 16 mg/kg in series [5]; 2 mg/kg in [6]; 32 mg/kg in [18]. The 50% effective dose (ED50) was more than 250 mg/kg in series [19]; 74 mg/kg in [7]; 6 mg/kg in series [8]; 10 mg/kg in series [9]; 10 mg/kg in series [10]; 62 mg/kg in series [11]. In addition, the ED50 in [20] is 13 mg/kg; in series [14] it was 1.5 mg/kg; in series [15], 35 mg/kg; in series [16], more than 100 mg/kg. The 50% lethal dose (LD50) was 596 mg/kg in [4], 596 mg/kg in [17] and more than 1000 mg/kg in series [13]. Moreover, in series [12], the result was inactive.
`O=[N+]([O-])c1ccc(/C=[N+](/[O-])CCO)o1` [NIFURATRONE]: the median effective dose (ED50) was less than 50 mg/kg in [1]; 47 mg/kg in series [2]; 53 mg/kg in series [3]; 30 mg/kg in series [5]; 47 mg/kg in series [6]; more than 100 mg/kg in [18]. Further, the ED50 in series [19] is more than 100 mg/kg; in [7], 26 mg/kg; in series [8] it was 39 mg/kg; in series [9] it was 31 mg/kg; in series [10], 27 mg/kg; in series [20], 46 mg/kg. The ED50 is 8 mg/kg in series [14] and more than 100 mg/kg in [16]. The LD50 in [17] was 417 mg/kg; in series [13], 518 mg/kg. In addition, in series [12], the outcome was inactive.
